“Also recorded” adds a separate entry of the source. Where two headings read alike, the source gives them in different places.
Columns and labels:
LnCap cells [1] = assay type: cell-based, human
LnCap cells [2] = assay type: cell-based, human; remark: listed apart in the source
[3] = molecular target: T1, rhARLBD (ligand binding domain of the rhesus monkey AR) (Macaca mulatta, UniProt Q6QT55); assay: Hydroxyapatite (HAP)-based 3H-R1881 displacement binding assay using rhARLBD expressed in yeast
T1 construct: includes amino acids 601 to 895 of the rhesus monkey AR; made in house; host or cells: yeast (pESP-1 vector, Stratagene)
T1 sequence (Q6QT55 601-895): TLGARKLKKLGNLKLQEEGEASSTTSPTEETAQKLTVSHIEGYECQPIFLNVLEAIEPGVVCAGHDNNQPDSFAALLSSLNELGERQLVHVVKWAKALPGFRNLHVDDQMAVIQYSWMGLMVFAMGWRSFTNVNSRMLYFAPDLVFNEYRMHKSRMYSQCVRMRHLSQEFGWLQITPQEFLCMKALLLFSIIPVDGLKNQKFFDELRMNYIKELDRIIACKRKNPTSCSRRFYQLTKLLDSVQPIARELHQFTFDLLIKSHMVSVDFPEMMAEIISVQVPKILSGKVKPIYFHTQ
Source text: The screening assays were set up to use the ARLBD from Macaca mulatta (rhesus monkey; herein after rhARLBD) expressed in yeast. […] A medium to high throughput AR binding assay for screening analyte libraries and characterizing various analytes therein was also developed.
Cloning the full length rhesus monkey AR from rhesus monkey prostrate mRNA and subsequent subcloning of the rhARLBD was done as described in WO02090529 to Towler and Chen. Briefly, the rhARLBD was PCR amplified from the full rhesus monkey AR and inserted in frame with GST at a SmaI site of the pESP-1 clone. This placed the rhARLBD downstream of the GST-flag tag.
Cell lysates comprising the rhARLBD were prepared as follows. GST-Flag-rhARLBD (Mr=60 kDa) fusion protein was expressed in yeast using the pESP-1 vector (Stratagene, La Jolla, Calif.) according to the manufacturer's protocol. After a sufficient time to express the GST-Flag-rhARLBD the yeast were centrifuged and the yeast pellet resuspended in TGEM/DTT/PI buffer (10 mM Tris-HCl, pH 7.4, 1 mM EDTA, 10% glycerol, 10 mM molybdate, 2 mM dithiothreitol (DTT), 50 μL yeast protease inhibitor cocktail (PI, Sigma Chemicals, St. Louis, Mo.) per gram of yeast and 1/10×^th volume of PI complete (PI: Boehringer-Mannheim, Roche Applied Science, Indianapolis, Ind.) per gram of yeast. The yeast cells were lysed by vortexing in the presence of glass beads in cold TGEM/DTT/PI buffer. The cell debris was centrifuged at 10,000×g for 20 minutes at 4° C. The clear supernatant fraction containing the rhARLBD was the lysate used for the assays. Usually, about 25 to 50 μL of lysate as determined by titration was used per assay. In some cases, the rhARLBD fusion protein was purified from the lysate using a batch purification method using anti-Flag M2 affinity gel (Sigma) in TEGM/DTT buffer. The rhARLBD fusion protein was eluted using TEGM/DTT buffer containing 100 μg/mL Flag peptide.
Hydroxyapatite (HAP)-based binding assays were performed as follows: For the hydroxyapatite assays, the amount of lysate used was based on titration using ^3H-ligand at concentration about the Kd value of the ligand to the corresponding receptor. In general, the assay was carried at in 150 μL of TEGM buffer. […] The samples were vortexed and incubated on ice for about 10 minutes. […] The washing process transfers the HAP pellets containing ligand-bound-expressed receptor to [sequence]-96 GF/B (Packard Instruments Co.) which has been prewetted in 0.5% polyethylimine. The HAP pellets on the filter plates were incubated with 50 μL of MICROSCINT (Packard Instruments Co.) for 2 hours before counted on the TOPCOUNT (Packard Instruments Co.). […] The binding reactions were incubated for about 18 hours at 4° C. and process as above).

LnCap cells [4] = conditions: LnCap AR with residue 877 threonine to alanine mutation; cited from earlier work
[5] = molecular target: T2, LnCap AR (residue 877 threonine to alanine) (Homo sapiens, UniProt P10275, T878A); conditions: LnCap AR expression vector; cited from earlier work
T2 sequence (P10275 1-920 T878A): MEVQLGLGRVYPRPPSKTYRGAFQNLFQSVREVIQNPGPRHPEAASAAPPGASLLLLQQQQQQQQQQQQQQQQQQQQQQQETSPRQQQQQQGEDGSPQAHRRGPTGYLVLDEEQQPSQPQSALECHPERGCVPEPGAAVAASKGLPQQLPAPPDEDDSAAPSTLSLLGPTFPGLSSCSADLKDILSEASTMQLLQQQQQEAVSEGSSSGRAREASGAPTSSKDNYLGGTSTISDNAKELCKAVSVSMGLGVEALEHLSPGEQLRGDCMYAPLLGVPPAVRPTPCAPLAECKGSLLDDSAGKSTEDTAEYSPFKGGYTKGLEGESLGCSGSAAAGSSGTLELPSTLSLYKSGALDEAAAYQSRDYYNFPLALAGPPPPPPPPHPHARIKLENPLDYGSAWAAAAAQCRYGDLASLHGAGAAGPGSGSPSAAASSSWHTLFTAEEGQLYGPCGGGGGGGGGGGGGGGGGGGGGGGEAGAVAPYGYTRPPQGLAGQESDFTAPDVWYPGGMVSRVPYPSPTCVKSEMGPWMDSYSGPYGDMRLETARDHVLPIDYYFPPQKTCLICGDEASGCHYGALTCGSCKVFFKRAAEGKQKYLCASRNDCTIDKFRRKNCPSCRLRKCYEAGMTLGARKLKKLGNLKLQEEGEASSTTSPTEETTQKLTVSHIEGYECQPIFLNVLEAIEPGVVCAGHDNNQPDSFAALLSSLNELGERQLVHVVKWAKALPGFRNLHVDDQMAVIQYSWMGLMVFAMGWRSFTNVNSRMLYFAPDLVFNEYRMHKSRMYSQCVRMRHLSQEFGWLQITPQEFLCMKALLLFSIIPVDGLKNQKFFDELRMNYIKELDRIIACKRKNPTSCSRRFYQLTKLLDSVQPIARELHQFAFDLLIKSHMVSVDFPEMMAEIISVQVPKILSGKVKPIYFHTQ

Compound	agonist activity, PSA production in LnCap cells (agonist mode) (LnCap cells [1])	antagonist activity on PSA production in LnCap cells (antagonist mode) (LnCap cells [2])	stimulation of LnCap cell growth through the AR (LnCap cells [4])	also measured
C[C@]12CC[C@H]3[C@@H](CCC4=C[C@@H](O)CC[C@@]43C)[C@@H]1CC[C@@H]2O [4-androstene-3β,17β-diol]	had agonist activity	antagonist activity; also recorded: antagonized the agonist activity of DHT and R1881	–	–
C[C@]12CCC(=O)C=C1CC[C@@H]1[C@@H]2CC[C@]2(C)C(=O)CC[C@@H]12 [4-androstene-3,17β-dione]	had agonist activity	antagonist activity; also recorded: antagonized the agonist activity of DHT and R1881	–	binding affinity to rhARLBD compared to full-length human AR ([3]; comparison of IC50s, rhARLBD (yeast lysate) vs full-length human AR (mdaAR), FIGS. 2A-2D, 3A-3D): reduced binding affinity
C[C@]12CCC(=O)C[C@@H]1CC[C@@H]1[C@@H]2CC[C@]2(C)[C@@H](O)CC[C@@H]12 [DHT, 5-α-dihydrotestosterone]	full agonist activity; also recorded: had agonist activity	full agonist activity	–	–
CC(=O)O[C@]1(C(C)=O)CC[C@H]2[C@@H]3C=C(Cl)C4=CC(=O)[C@@H]5C[C@@H]5[C@]4(C)[C@H]3CC[C@@]21C [CPA, cyproterone acetate]	had agonist activity	antagonist activity; also recorded: antagonized the agonist activity of DHT and R1881	able to stimulate cell growth	–
C[C@]12CC[C@H](O)CC1=CC[C@@H]1[C@@H]2CC[C@]2(C)C(=O)CC[C@@H]12 [DHEA, dehydroepiandrosterone]	had agonist activity	antagonist activity; also recorded: antagonized the agonist activity of DHT and R1881	–	–
CC(=O)[C@H]1CC[C@H]2[C@@H]3CCC4=CC(=O)CC[C@]4(C)[C@H]3CC[C@]12C [progesterone]	–	–	able to stimulate cell growth	–
CC(O)(CS(=O)(=O)c1ccc(F)cc1)C(=O)Nc1ccc(C#N)c(C(F)(F)F)c1 (stereo not shown) [CASODEX]	full antagonist	antagonist activity	retains its antagonism	–
CC(C)(O)C(=O)Nc1ccc([N+](=O)[O-])c(C(F)(F)F)c1 [hydroxyflutamide]	–	–	able to stimulate cell growth	effect on the androgen promoter in receptor/reporter cotransfection [5]: agonist effect
C[C@]1(O)CC[C@H]2[C@@H]3CCC4=CC(=O)CCC4=C3C=C[C@@]21C [R1881, 17 β-hydroxy-17-methyl-estra-4,9,11-trien-3-one]	slightly less potent than DHT; also recorded: had agonist activity	does not antagonize	–	IC50 [3]: ~1 nM; binding affinity to rhARLBD compared to full-length human AR [3]: same binding affinity; also recorded: no significant shift

Reference: US20070141636A1 (priority 2003, published 2007)
